# Measurements: ChEMBL document CHEMBL1128071, “Rational design, synthesis, and X-ray structure of renin inhibitors with extended P1 sidechains” (Bioorg Med Chem Lett, 1995)
# Target: T1, Renin (Homo sapiens, UniProt P00797)
# T1 sequence (P00797 whole entry): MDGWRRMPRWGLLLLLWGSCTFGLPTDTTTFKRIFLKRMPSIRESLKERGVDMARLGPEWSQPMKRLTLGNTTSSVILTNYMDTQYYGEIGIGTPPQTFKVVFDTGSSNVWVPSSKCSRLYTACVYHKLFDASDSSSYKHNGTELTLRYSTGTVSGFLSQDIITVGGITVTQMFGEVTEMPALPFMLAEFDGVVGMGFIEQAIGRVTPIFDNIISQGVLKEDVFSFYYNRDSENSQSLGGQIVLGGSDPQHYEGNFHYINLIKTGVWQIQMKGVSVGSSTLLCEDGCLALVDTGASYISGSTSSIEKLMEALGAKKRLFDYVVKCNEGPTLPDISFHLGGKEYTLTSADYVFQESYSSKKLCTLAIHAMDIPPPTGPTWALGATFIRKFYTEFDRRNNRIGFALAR
# Test: Inhibition against recombinant human renin (rHR)
row,Compound,IC50 [nM]
1,CSC[C@H](NC(=O)CNC(=O)N1CCC(=O)CC1)C(=O)N[C@@H](Cc1cccc(-c2ccccc2)c1)[C@@H](O)[C@@H](O)CC(C)C,110
2,CSC[C@H](NC(C)=O)C(=O)N[C@@H](Cc1cccc(-c2ccccc2)c1)[C@@H](O)[C@@H](O)CC(C)C,1600
3,CSC[C@H](NC(=O)CNC(=O)N1CCC(=O)CC1)C(=O)N[C@@H](Cc1ccc(-c2ccccc2)cc1)[C@@H](O)[C@@H](O)CC(C)C,130
4,CSC[C@H](NC(C)=O)C(=O)N[C@@H](CC1CCCCC1)[C@@H](O)[C@@H](O)CC(C)C,5100
5,CSC[C@H](NC(=O)CNC(=O)N1CCC(=O)CC1)C(=O)N[C@@H](Cc1ccc(Oc2ccccc2)cc1)[C@@H](O)[C@@H](O)CC(C)C,66
6,CSC[C@H](NC(=O)CNC(=O)N1CCC(=O)CC1)C(=O)N[C@@H](CC1CCCCC1)[C@@H](O)[C@@H](O)CC(C)C,1200
7,CSC[C@H](NC(C)=O)C(=O)N[C@@H](Cc1ccc(-c2ccccc2)cc1)[C@@H](O)[C@@H](O)CC(C)C,1100
8,CSC[C@H](NC(=O)[C@H](Cc1ccccc1)NC(=O)N1CCC(=O)CC1)C(=O)N[C@@H](CC1CCCCC1)[C@@H](O)[C@@H](O)CC(C)C,0.3
9,CSC[C@H](NC(=O)CNC(=O)N1CCC(=O)CC1)C(=O)N[C@@H](Cc1ccccc1)[C@@H](O)[C@@H](O)CC(C)C,16000
